# Experiments:
# Assay type in all cases: in vivo, mouse
# HCT116 tumor xenograft = HCT116 tumor xenograft model, tumor response
# Method: The cell line HCT-116 has been widely used in the evaluation of mitotic inhibitors such as microtubule disruptors, mitotic kinase inhibitors and KSP inhibitors. […] Experiments were performed using outbred athymic nu/nu mice approximately 6-8 weeks old (Charles River Laboratories, Hollister, Calif.). […] Mice were housed 4-5 animals per cage in clear polycarbonate micro-isolator cages with a 12-hour light, 12-hour dark cycle at temperatures between 70-80 degrees Fahrenheit and 30-70% relative humidity. Food (Purina rodent chow pellets) and water were provided ad libitum. Mice were handled in accordance with Novartis ACUC regulations and guidelines and the ILAR Guide for the Care and Use of Laboratory Animals. Experiments were performed in an AAALAC accredited facility under an ACUC approved protocol.
# Compound IIa (free base) and SB-715992 (ispinesib, a KSP inhibitor by Cytokinetics that is in clinical trials; as its free base) were formulated in 20% Captisol® for all the above doses for a dose volume of 8 mL/kg. Doses were adjusted to each animal's body weight.
# Human HCT116 colon carcinoma cells were obtained from the National Cancer Institute's DCTD Tumor Repository (catalog #NCI-502568, Rockville, Md.) and tested to be free of Mycoplasma sp. and murine viruses in the IMPACT1 PCR assay panel (RADIL, University of Missouri, Columbia, Mo.). HCT116 cells were grown in RPMI 1640 with 2 mM L-glutamine (Mediatech Inc., catalog #15-040-CV) supplemented with 10% fetal bovine serum (JRH Biosciences, catalog #12003-1000M). These cells were grown as adherent cultures, maintained at 37° C. in a humidified atmosphere containing 5% carbon dioxide. Cells were cultured for fewer than 10 passages prior to use. Cells were harvested at 95% confluency, and centrifuged at ˜800×g for 5 minutes at 4° C. and then resuspended in a cold HBSS (Mediatech Inc., catalog #21-021-CV) at a concentration of 50 million cells/mL for implantation subcutaneously (injection volume of 0.1 mL).
# Female nu/nu mice (Charles River, Hollister, Calif.) were injected subcutaneously in the right flank with 5 million HCT-116 tumor cells suspended in Hank's Balanced Salt Solution (HBSS) in a total volume of 0.1 mL/mouse. For the efficacy studies, mice were randomized 10 days post-implant. […] Tumor volume was calculated as (L×W2)/2. […] Percent treatment/control (T/C) values were calculated using the following formula: % T/C=100×ΔT/ΔC
# (§1) All data were expressed as mean and SEM. Between-groups comparisons for final tumor measurements were performed using the one-way ANOVA pair-wise analysis. Significance was determined using Kruskal-Wallis one-way ANOVA on Ranks and Dunn's method for multiple pair-wise comparisons. Statistical analysis was carried out using SigmaStat (Systat Software Inc., San Jose, Calif.).
# [1] = Subcutaneous MV4; 11 tumor xenograft model, host response
# Method: Subcutaneous tumor efficacy studies were performed using outbred athymic nu/nu mice approximately 6-8 weeks old (Charles River Laboratories, Hollister, Calif.). The efficacy study in the disseminated disease model was performed using immunodeficient NOD-SCID female mice approximately 7-8 weeks old (Jackson Laboratories, Bar Harbor, Me.). […] Routine animal care and assurance of welfare were as described above.
# The compound IIa (free base) and SB-715992 (free base) were formulated in 20% Captisol for a dose volume of 8 mL/kg. Doses were adjusted to each animal's body weight.
# For the two efficacy evaluations in the subcutaneous tumor model, 10 million cells combined in a 1:1 mixture of HBSS and Matrigel™ were injected subcutaneously in the right flank in a total volume of 0.2 mL/mouse. […] Tumor volume was calculated as (L×W2)/2.
# KB8.5 tumor xenograft = KB8.5 tumor xenograft model (P-gp expressing), tumor response; settings: q4d × 3
# Method: as §1, with “Cells were cultured for fewer than 10 passages prior to use. […] All” for “All”, “Ranks, followed by appropriate post-hoc test (Dunn's Method or Tukey Test)” for “Ranks and Dunn's method”
# [2] = Study 2, 1.8 mg/kg, Q4d × 3, i.v, D10
# [3] = Study 2, 3.5 mg/kg, Q4d × 3, i.v, D3
# [4] = Study 2, 7.5 mg/kg, Q4d × 3, i.v, D10
compound,measurement,setting,value
CC(C)(C)[C@H](c1nc(-c2cc(F)ccc2F)cn1Cc1ccccc1)N(CC[C@H](N)CF)C(=O)CO [Compound IIa],"T/C, Day 24 (%)","HCT116 tumor xenograft; 0.125 mg/kg, i.v., q4d × 3",81%
same,"Δ Tumor volume, Day 24","HCT116 tumor xenograft; 0.125 mg/kg, i.v., q4d × 3",809 ± 193 mm^3
same,anti-tumor effect,"HCT116 tumor xenograft; 0.125 mg/kg, q4d×3",not significantly different from vehicle control
same,"T/C, Day 24 (%)","HCT116 tumor xenograft; 0.25 mg/kg, i.v., q4d × 3",35%
same,"Δ Tumor volume, Day 24","HCT116 tumor xenograft; 0.25 mg/kg, i.v., q4d × 3",382 ± 120 mm^3
same,"T/C, Day 24 (%)","HCT116 tumor xenograft; 0.5 mg/kg, i.v., q4d × 3",14%
same,"Δ Tumor volume, Day 24","HCT116 tumor xenograft; 0.5 mg/kg, i.v., q4d × 3",155 ± 145 mm^3
same,Max. % Regression (Day),"HCT116 tumor xenograft; 0.5 mg/kg, i.v., q4d × 3, D14",8%
same,"Δ Tumor volume, Day 24","HCT116 tumor xenograft; 1 mg/kg, i.v., q4d × 3",−34 ± 36 mm^3
same,Max. % Regression (Day),"HCT116 tumor xenograft; 1 mg/kg, i.v., q4d × 3, D17",46%
same,"Δ Tumor volume, Day 17","HCT116 tumor xenograft; 1.25 mg/kg, i.v., q4d × 3",−173 ± 12 mm^3
same,Max. % Regression (Day),"HCT116 tumor xenograft; 1.25 mg/kg, i.v., q4d × 3, D20",66%
same,"Δ Tumor volume, Day 24","HCT116 tumor xenograft; 2 mg/kg, i.v., q4d × 3",−141 ± 48 mm^3
same,Max. % Regression (Day),"HCT116 tumor xenograft; 2 mg/kg, i.v., q4d × 3, D21",73%
same,"Δ Tumor volume, Day 17","HCT116 tumor xenograft; 2.5 mg/kg, i.v., q4d × 3",−208 ± 17 mm^3
same,Max. % Regression (Day),"HCT116 tumor xenograft; 2.5 mg/kg, i.v., q4d × 3, D20",82%
same,"Δ Tumor volume, Day 17","HCT116 tumor xenograft; 5 mg/kg, i.v., q4d × 3 (only first two doses given)",−196 ± 11 mm^3
same,Max. % Regression (Day),"HCT116 tumor xenograft; 5 mg/kg, i.v., q4d × 3 (only first two doses given), D20",73%
same,anti-tumor effect,"HCT116 tumor xenograft; as low as 0.25 mg/kg, q4d×3, during the dosing interval",tumor stasis
same,Survival (alive/total),"[1]; 0.625 mg/kg, q4d × 3, i.v.",4/4
same,Survival (alive/total),"[1]; 4 mg/kg, q4d × 3, i.v.",9/9
same,Survival (alive/total),"[1]; Study 2, 0.13 mg/kg, q4d × 3, i.v",9/9
same,Survival (alive/total),"[1]; Study 2, 0.25 mg/kg, q4d × 3, i.v",9/9
same,Survival (alive/total),"[1]; Study 2, 0.5 mg/kg, q4d × 3, i.v",9/9
same,Survival (alive/total),"[1]; Study 2, 1 mg/kg, q4d × 3, i.v",9/9
same,Survival (alive/total),"[1]; Study 2, 2 mg/kg, q4d × 3, i.v",9/9
same,"ΔT/ΔC, Day 11 (%)","KB8.5 tumor xenograft; 5 mg/kg, i.v.",19%
"CC(=O)O[C@H]1C(=O)[C@@]2(C)[C@H]([C@H](OC(=O)c3ccccc3)[C@]3(O)C[C@H](OC(=O)[C@H](O)[C@@H](NC(=O)c4ccccc4)c4ccccc4)C(C)=C1C3(C)C)[C@]1(OC(C)=O)CO[C@@H]1C[C@@H]2O [Paclitaxel, reference compound]","Δ Tumor volume, Day 17","HCT116 tumor xenograft; 30 mg/kg, i.p., q4d × 3",−80 ± 3 mm^3
same,Max. % Regression (Day),"HCT116 tumor xenograft; 30 mg/kg, i.p., q4d × 3, D17",31%
same,Survival (alive/total),"[1]; 1 mg/kg, q4d × 3, i.p.",9/9
same,"ΔT/ΔC, Day 11 (%)","KB8.5 tumor xenograft; 30 mg/kg, i.p.",78%
same,"ΔT/ΔC, Day 11 (%)","KB8.5 tumor xenograft; Table 14 study, 30 mg/kg, i.p.",87%
same,"ΔT/ΔC, Day 11 (%)","KB8.5 tumor xenograft; Table 15 study, 30 mg/kg, i.p., not statistically different from vehicle",60%
"Cc1ccc(C(=O)N(CCCN)[C@@H](c2nc3cc(Cl)ccc3c(=O)n2Cc2ccccc2)C(C)C)cc1 [SB-715992, Ispinesib, reference compound]","T/C, Day 24 (%)","HCT116 tumor xenograft; 1.75 mg/kg, i.v., q4d × 3",36%
same,"Δ Tumor volume, Day 24","HCT116 tumor xenograft; 1.75 mg/kg, i.v., q4d × 3",395 ± 84 mm^3
same,"T/C, Day 17 (%)","HCT116 tumor xenograft; 3.5 mg/kg, i.v., q4d × 3",5%
same,"T/C, Day 24 (%)","HCT116 tumor xenograft; 3.5 mg/kg, i.v., q4d × 3",15%
same,"Δ Tumor volume, Day 17","HCT116 tumor xenograft; 3.5 mg/kg, i.v., q4d × 3",39 ± 4 mm^3
same,"Δ Tumor volume, Day 24","HCT116 tumor xenograft; 3.5 mg/kg, i.v., q4d × 3",165 ± 60 mm^3
same,Max. % Regression (Day),"HCT116 tumor xenograft; 3.5 mg/kg, i.v., q4d × 3, D7",13%
same,Max. % Regression (Day),"HCT116 tumor xenograft; 3.5 mg/kg, i.v., q4d × 3, D11",10%
same,"Δ Tumor volume, Day 17","HCT116 tumor xenograft; 7.5 mg/kg, i.v., q4d × 3",−177 ± 55 mm^3
same,"Δ Tumor volume, Day 24","HCT116 tumor xenograft; 7.5 mg/kg, i.v., q4d × 3",−145 ± 25 mm^3
same,Max. % Regression (Day),"HCT116 tumor xenograft; 7.5 mg/kg, i.v., q4d × 3, D17",65%
same,Max. % Regression (Day),"HCT116 tumor xenograft; 7.5 mg/kg, i.v., q4d × 3, D21",65%
same,"Δ Tumor volume, Day 17","HCT116 tumor xenograft; 15 mg/kg, i.v., q4d × 3 (only first two doses given)",−205 ± 24 mm^3
same,Max. % Regression (Day),"HCT116 tumor xenograft; 15 mg/kg, i.v., q4d × 3 (only first two doses given), D20",73%
same,Survival (alive/total),"[1]; 15 mg/kg, q4d × 3, i.v., (body weight loss)",7/9 (body
same,"% Max. Δ body weight, (Day)","[1]; 15 mg/kg, q4d × 3, i.v., D3",−5.6 ± 1.1%
same,Max Δ body weight (g) (Day),"[1]; 15 mg/kg, q4d × 3, i.v., D3",-1.4 ± 0.3 g
same,Survival (alive/total),"[1]; Study 2, 1.8 mg/kg, Q4d × 3, i.v",9/9
same,"% Max. Δ body weight, (Day)",[1]; [2],"2.0 ± 1.0, %"
same,Max. Δ body weight (g) (Day),[1]; [2],"0.5 ± 0.4, g"
same,Survival (alive/total),"[1]; Study 2, 3.5 mg/kg, Q4d × 3, i.v",9/9
same,"% Max. Δ body weight, (Day)",[1]; [3],"0.7 ± 0.3, %"
same,Max. Δ body weight (g) (Day),[1]; [3],"0.2 ± 0.3, g"
same,Survival (alive/total),"[1]; Study 2, 7.5 mg/kg, Q4d × 3, i.v",9/9
same,"% Max. Δ body weight, (Day)",[1]; [4],"−1.4 ± 1.3, %"
same,Max. Δ body weight (g) (Day),[1]; [4],"−0.4 ± 0.8, g"
same,"ΔT/ΔC, Day 11 (%)","KB8.5 tumor xenograft; 15 mg/kg, i.v.",56%
same,"ΔT/ΔC, Day 11 (%)","KB8.5 tumor xenograft; Table 14 study, 15 mg/kg, i.v.",77%
same,"ΔT/ΔC, Day 11 (%)","KB8.5 tumor xenograft; Table 15 study, 15 mg/kg, i.v., not statistically different from vehicle",60%

# Reference: US8252832B2, “Kinesin inhibitors as cancer therapeutics” (Novartis AG, priority 2007, dated 2012)
